# Measured values published in ChEMBL document CHEMBL1671722, “Comparative in vitro activity profiles of novel bis-indole antibacterials against gram-positive and gram-negative clinical isolates” (Antimicrob Agents Chemother, 2010).
# Legend:
# Staphylococcus aureus [1] = assay: Antimicrobial activity against methicillin-susceptible Staphylococcus aureus by broth microdilution method; assay type: functional
# Staphylococcus aureus [2] = assay: Antimicrobial activity against methicillin-resistant Staphylococcus aureus by broth microdilution method; assay type: functional
# [3] = test system: Staphylococcus epidermidis; assay: Antimicrobial activity against methicillin-susceptible Staphylococcus epidermidis by broth microdilution method; assay type: functional
# [4] = test system: Staphylococcus epidermidis; assay: Antimicrobial activity against methicillin-resistant Staphylococcus epidermidis by broth microdilution method; assay type: functional
# Enterococcus faecalis [5] = assay: Antimicrobial activity against vancomycin-susceptible Enterococcus faecalis by broth microdilution method; assay type: functional
# Enterococcus faecalis [6] = assay: Antimicrobial activity against vancomycin-resistant Enterococcus faecalis by broth microdilution method; assay type: functional
# Enterococcus faecium [7] = assay: Antimicrobial activity against vancomycin-susceptible Enterococcus faecium by broth microdilution method; assay type: functional
# Enterococcus faecium [8] = assay: Antimicrobial activity against vancomycin-resistant Enterococcus faecium by broth microdilution method; assay type: functional
# Streptococcus pneumoniae [9] = assay: Antimicrobial activity against penicillin-susceptible Streptococcus pneumoniae by broth microdilution method; assay type: functional
# Streptococcus pneumoniae [10] = assay: Antimicrobial activity against penicillin-intermediate Streptococcus pneumoniae by broth microdilution method; assay type: functional
# Streptococcus pneumoniae [11] = assay: Antimicrobial activity against penicillin-resistant Streptococcus pneumoniae by broth microdilution method; assay type: functional
# Streptococcus agalactiae = assay: Antimicrobial activity against Streptococcus agalactiae by broth microdilution method; assay type: functional
# Clostridioides difficile = assay: Antimicrobial activity against Clostridium difficile by broth microdilution method; assay type: functional
# Escherichia coli = assay: Antimicrobial activity against Escherichia coli by broth microdilution method; assay type: functional
# Klebsiella pneumoniae [12] = assay: Antimicrobial activity against Klebsiella pneumoniae by broth microdilution method; assay type: functional
# Klebsiella pneumoniae [13] = assay: Antimicrobial activity against ESBL-production Klebsiella pneumoniae by broth microdilution method; assay type: functional
# Serratia marcescens = assay: Antimicrobial activity against Serratia marcescens by broth microdilution method; assay type: functional
# Proteus mirabilis = assay: Antimicrobial activity against Proteus mirabilis by broth microdilution method; assay type: functional
# Acinetobacter baumannii [14] = assay: Antimicrobial activity against Acinetobacter baumannii by broth microdilution method; assay type: functional
# Acinetobacter baumannii [15] = assay: Antimicrobial activity against multiple dug-resistant Acinetobacter baumannii by broth microdilution method; assay type: functional
# Pseudomonas aeruginosa = assay: Antimicrobial activity against Pseudomonas aeruginosa by broth microdilution method; assay type: functional
# Burkholderia cepacia = assay: Antimicrobial activity against Burkholderia cepacia by broth microdilution method; assay type: functional
# Haemophilus influenzae = assay: Antimicrobial activity against Haemophilus influenzae by broth microdilution method; assay type: functional
# [16] = Cytotoxicity against HeLa cells after 3 days by MTS assay; assay type: cell-based; conditions: human
# [17] = Protein binding to serum; assay type: ADME, cell-free; conditions: read-out: PB (converted)
structure (smiles),measurement,setting,value
c1cc2cc(-c3ccc(-c4cc5ccc(C6=NCCN6)cc5[nH]4)cc3)[nH]c2cc1C1=NCCN1,MIC50,Staphylococcus aureus [1],0.12 µg/mL
same,MIC90,Staphylococcus aureus [1],0.25 µg/mL
same,MIC,Staphylococcus aureus [2],0.06 µg/mL
same,MIC50,Staphylococcus aureus [2],0.06 µg/mL
same,MIC90,Staphylococcus aureus [2],0.12 µg/mL
same,MIC50,[3],0.008 µg/mL
same,MIC90,[3],0.03 µg/mL
same,MIC50,[4],0.015 µg/mL
same,MIC90,[4],0.03 µg/mL
same,MIC50,Enterococcus faecalis [5],0.06 µg/mL
same,MIC90,Enterococcus faecalis [5],0.06 µg/mL
same,MIC50,Enterococcus faecalis [6],0.03 µg/mL
same,MIC90,Enterococcus faecalis [6],0.06 µg/mL
same,MIC50,Enterococcus faecium [7],0.004 µg/mL
same,MIC90,Enterococcus faecium [7],0.015 µg/mL
same,MIC50,Enterococcus faecium [8],0.004 µg/mL
same,MIC90,Enterococcus faecium [8],0.004 µg/mL
same,MIC50,Streptococcus pneumoniae [9],0.015 µg/mL
same,MIC90,Streptococcus pneumoniae [9],0.03 µg/mL
same,MIC50,Streptococcus pneumoniae [10],0.015 µg/mL
same,MIC90,Streptococcus pneumoniae [10],0.12 µg/mL
same,MIC,Streptococcus pneumoniae [11],0.03 µg/mL
same,MIC50,Streptococcus pneumoniae [11],0.03 µg/mL
same,MIC90,Streptococcus pneumoniae [11],0.06 µg/mL
same,MIC,Streptococcus agalactiae,0.03 µg/mL
same,MIC50,Streptococcus agalactiae,0.03 µg/mL
same,MIC90,Streptococcus agalactiae,0.03 µg/mL
same,MIC50,Clostridioides difficile,0.06 µg/mL
same,MIC90,Clostridioides difficile,0.12 µg/mL
same,MIC50,Escherichia coli,0.12 µg/mL
same,MIC90,Escherichia coli,0.5 µg/mL
same,MIC50,Klebsiella pneumoniae [12],2 µg/mL
same,MIC90,Klebsiella pneumoniae [12],8 µg/mL
same,MIC50,Klebsiella pneumoniae [13],1 µg/mL
same,MIC90,Klebsiella pneumoniae [13],> 16 µg/mL
same,MIC50,Serratia marcescens,1 µg/mL
same,MIC90,Serratia marcescens,2 µg/mL
same,MIC50,Proteus mirabilis,> 16 µg/mL
same,MIC90,Proteus mirabilis,> 16 µg/mL
same,MIC50,Acinetobacter baumannii [14],8 µg/mL
same,MIC90,Acinetobacter baumannii [14],> 16 µg/mL
same,MIC50,Acinetobacter baumannii [15],> 16 µg/mL
same,MIC50,Pseudomonas aeruginosa,> 16 µg/mL
same,MIC90,Pseudomonas aeruginosa,> 16 µg/mL
same,MIC,Burkholderia cepacia,≤ 0.015 µg/mL
same,MIC50,Burkholderia cepacia,≤ 0.015 µg/mL
same,MIC90,Burkholderia cepacia,0.06 µg/mL
same,MIC50,Haemophilus influenzae,4 µg/mL
same,MIC90,Haemophilus influenzae,> 16 µg/mL
same,CC50 at 72 h,[16],33 µg/mL
same,fraction unbound,[17],0.75
